The record followed here is patent EP0279787A1, “Pharmaceutical compositions with synergistic antisecretory action for the healing of gastroduodenal ulcer” (ISTITUTO DE ANGELI S.p.A., priority 1987, dated 1988).

The subject of this test is gastric acid secretion. Briefly: Lumen perfused stomach of the anaesthetized rat: inhibition of acid secretion evoked by histamine plus acetylcholine. The test is classed as in vivo. The note with it: drug alone. The method, then: Experiments in lumen perfused stomach of the anaesthetized rat were performed, evoking acid secretion by histamin (0.5 mg/kg/h i.v.) and acetylcholine (0.5 mg/kg/h i.v.) given in combination. These two combined secretagogues evoked a response which was about 80% of the maximal effect achievable by maximally effective dose of either acetylcholine (8 mg/kg/h i.v.) or histamine (8 mg/kg/h i.v.) alone.
As soon as a steady level of acid output was reached, a combination of mifentidine/pirenzepine (1:10), or of DA-5047/pirenzepine (1:10) under the form of the compositions of the present invention, or mifentidine, DA-5047 and pirenzepine alone were administered intravenously. Each dose was administered to 8 animals.
The obtained data were submitted to linear regression analysis in order to calculate the dose inhibiting 50% (ED₅₀) the response of which is reported in the following table II: […]

Each structure is given as a SMILES string.

With `Cc1nc(-c2ccc(N=CNC(C)C)cc2)c[nH]1` [DA-5047, N-isopropyl-Nʹ-[4-(2- -methyl-imidazol-4-yl)phenyl]-formamidine], the Percent inhibition reads like this: (dose 20 µg/kg i.v.) 21%; (dose 40 µg/kg i.v.) 34%; (dose 80 µg/kg i.v.) 52%.

For `CC(C)NC=Nc1ccc(-c2c[nH]cn2)cc1` [Mifentidine, N-isopropyl-Nʹ-[4-(imidazol-4-yl)phenyl]-formamidines], the Percent inhibition was determined as 20% (dose 20 µg/kg i.v.), 36% (dose 40 µg/kg i.v.) and 58% (dose 80 µg/kg i.v.).

As to `CN1CCN(CC(=O)N2c3ccccc3C(=O)Nc3cccnc32)CC1` [Pirenzepine, reference compound], the Percent inhibition (dose 200 µg/kg i.v.) was found to be 28%, the Percent inhibition (dose 400 µg/kg i.v.) is given as 46% and the Percent inhibition (dose 800 µg/kg i.v.) stood at 62%.
